Consider eleven molecules from ChEMBL document CHEMBL5723379, “Affinity On-target Cellular Literature for EUbOPEN Chemogenomic Library” (2024).

Assay [1] concerns the target T1, Peroxisome proliferator-activated receptor gamma (Homo sapiens, UniProt P37231).
T1 sequence (P37231 whole entry): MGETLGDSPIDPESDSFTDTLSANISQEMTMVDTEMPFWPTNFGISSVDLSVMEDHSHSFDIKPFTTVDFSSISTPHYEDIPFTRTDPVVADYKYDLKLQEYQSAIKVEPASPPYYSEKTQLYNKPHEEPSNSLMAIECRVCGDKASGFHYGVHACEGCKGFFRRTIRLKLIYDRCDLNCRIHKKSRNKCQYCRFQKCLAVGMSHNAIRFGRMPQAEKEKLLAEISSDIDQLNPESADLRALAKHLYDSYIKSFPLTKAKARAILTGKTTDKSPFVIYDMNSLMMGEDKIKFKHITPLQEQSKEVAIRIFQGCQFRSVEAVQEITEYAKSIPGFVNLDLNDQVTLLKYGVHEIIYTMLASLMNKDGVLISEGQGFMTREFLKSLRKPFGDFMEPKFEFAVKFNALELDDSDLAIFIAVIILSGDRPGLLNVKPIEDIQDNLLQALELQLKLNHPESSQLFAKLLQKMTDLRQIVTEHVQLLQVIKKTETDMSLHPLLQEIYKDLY
The experiment in a line: Affinity On-target Cellular interaction: (Reporter gene assay (HEK293T cells)) EUB0001147a PPARG. Format: functional, cell-based, HEK-293T. The arrangement: mode of action Agonist, recommended concentration 1 uM.

Assay [2] deals with T2, Peroxisome proliferator-activated receptor alpha (Homo sapiens, UniProt Q07869).
T2 sequence (Q07869 whole entry): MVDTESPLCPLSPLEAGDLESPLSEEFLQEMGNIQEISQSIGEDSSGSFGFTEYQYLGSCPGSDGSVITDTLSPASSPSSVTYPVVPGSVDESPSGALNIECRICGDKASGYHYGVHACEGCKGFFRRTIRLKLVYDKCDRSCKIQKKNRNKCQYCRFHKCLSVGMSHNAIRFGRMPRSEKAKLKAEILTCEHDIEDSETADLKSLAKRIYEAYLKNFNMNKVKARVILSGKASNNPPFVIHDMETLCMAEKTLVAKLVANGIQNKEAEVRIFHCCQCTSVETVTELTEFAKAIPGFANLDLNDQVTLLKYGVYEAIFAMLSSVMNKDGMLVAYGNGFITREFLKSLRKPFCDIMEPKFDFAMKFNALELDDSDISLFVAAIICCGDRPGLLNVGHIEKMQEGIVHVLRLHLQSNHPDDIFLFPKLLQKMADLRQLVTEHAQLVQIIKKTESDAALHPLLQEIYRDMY
In words: Affinity On-target Cellular interaction: (Reporter gene assay (HEK293T cells)) EUB0001147a PPARA. Format: functional, cell-based, HEK-293T. The arrangement: mode of action Agonist, recommended concentration 1 uM. For orientation: Reporter assays use an easily measured gene product as a stand-in for the process of interest.

The target in assay [3] is T2, Peroxisome proliferator-activated receptor alpha. In words: Affinity On-target Cellular interaction: (Reporter gene assay (HEK293T cells)) EUB0001140a PPARA. Format: functional, cell-based, HEK-293T. The arrangement: mode of action Agonist, recommended concentration 1 uM.
The target of assay [4] is T3, Oxysterols receptor LXR-beta (Homo sapiens, UniProt P55055).
T3 sequence (P55055 whole entry): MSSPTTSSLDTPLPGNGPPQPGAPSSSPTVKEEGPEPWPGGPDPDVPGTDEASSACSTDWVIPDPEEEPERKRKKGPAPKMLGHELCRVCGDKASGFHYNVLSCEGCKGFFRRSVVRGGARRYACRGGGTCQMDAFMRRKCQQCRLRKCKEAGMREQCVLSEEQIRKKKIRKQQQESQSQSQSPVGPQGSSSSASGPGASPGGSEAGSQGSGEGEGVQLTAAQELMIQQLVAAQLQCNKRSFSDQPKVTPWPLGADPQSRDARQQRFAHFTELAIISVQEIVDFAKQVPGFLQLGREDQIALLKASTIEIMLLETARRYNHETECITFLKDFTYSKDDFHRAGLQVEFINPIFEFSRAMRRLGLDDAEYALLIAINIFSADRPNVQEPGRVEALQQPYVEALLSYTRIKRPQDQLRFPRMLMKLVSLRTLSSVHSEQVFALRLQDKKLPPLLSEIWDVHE
In words: Affinity On-target Cellular interaction: (Reporter gene assay (HEK293T cells)) EUB0000572aCl NR1H2. Format: functional, cell-based, HEK-293T. The arrangement: mode of action Agonist, recommended concentration 3 uM.

Assay [5] concerns the target Retinoic acid receptor gamma (Homo sapiens, UniProt P13631). In words: Affinity On-target Cellular interaction: (Reporter gene assay (HEK293T cells)) EUB0000835a RARG. Format: functional, cell-based, HEK-293T. The arrangement: mode of action Agonist, recommended concentration 1 uM.
Assay [6] has as its target Retinoic acid receptor beta (Homo sapiens, UniProt P10826). In words: Affinity On-target Cellular interaction: (Reporter gene assay (HEK293T cells)) EUB0000835a RARB. Format: functional, cell-based, HEK-293T. Set-up: mode of action Agonist, recommended concentration 1 uM.
Assay [7] has as its target Retinoic acid receptor alpha (Homo sapiens, UniProt P10276). In words: Affinity On-target Cellular interaction: (Reporter gene assay (HEK293T cells)) EUB0000835a RARA. Set-up: mode of action Agonist, recommended concentration 1 uM. Format: functional, cell-based, HEK-293T.
For assay [8], the target named is T1, Peroxisome proliferator-activated receptor gamma. The experiment in a line: Affinity On-target Cellular interaction: (Reporter gene assay (HEK293T cells)) EUB0001144a PPARG. Format: functional, cell-based, HEK-293T. Set-up: mode of action Agonist, recommended concentration 1 uM.
Assay [9] concerns the target T2, Peroxisome proliferator-activated receptor alpha. The experiment in a line: Affinity On-target Cellular interaction: (Reporter gene assay (HEK293T cells)) EUB0001144a PPARA. Format: functional, cell-based, HEK-293T. The arrangement: mode of action Agonist, recommended concentration 1 uM.
Another assay concerns the target Vitamin D3 receptor (Homo sapiens, UniProt P11473). In words: Affinity On-target Cellular interaction: (Reporter gene assay (HEK293T cells)) EUB0000582a VDR. Format: functional, cell-based, HEK-293T. Set-up: mode of action Agonist, recommended concentration 1 uM.
In assay [10] the target is T2, Peroxisome proliferator-activated receptor alpha. In words: Affinity On-target Cellular interaction: (Reporter gene assay (HEK293T cells)) EUB0001150a PPARA. Format: functional, cell-based, HEK-293T. Set-up: mode of action Antagonist, recommended concentration 10 uM.
For assay [11], the target named is T1, Peroxisome proliferator-activated receptor gamma. The experiment in a line: Affinity On-target Cellular interaction: (Reporter gene assay (HEK293T cells)) EUB0001150a PPARG. Format: functional, cell-based, HEK-293T. Set-up: mode of action Antagonist, recommended concentration 10 uM.
Assay [12] deals with T4, Oxysterols receptor LXR-alpha (Homo sapiens, UniProt Q13133).
T4 sequence (Q13133 whole entry): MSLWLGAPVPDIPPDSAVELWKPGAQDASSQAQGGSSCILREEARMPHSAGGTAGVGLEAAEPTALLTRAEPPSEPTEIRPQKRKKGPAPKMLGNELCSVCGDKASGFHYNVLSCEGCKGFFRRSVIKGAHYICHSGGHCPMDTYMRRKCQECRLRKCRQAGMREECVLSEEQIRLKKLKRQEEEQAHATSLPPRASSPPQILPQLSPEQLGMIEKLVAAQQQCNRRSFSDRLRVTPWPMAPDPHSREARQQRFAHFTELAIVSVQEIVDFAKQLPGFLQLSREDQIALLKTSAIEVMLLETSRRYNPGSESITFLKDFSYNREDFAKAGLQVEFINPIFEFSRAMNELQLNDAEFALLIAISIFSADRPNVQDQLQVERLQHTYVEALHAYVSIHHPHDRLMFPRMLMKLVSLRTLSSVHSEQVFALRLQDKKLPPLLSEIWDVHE
In words: Affinity On-target Cellular interaction: (Reporter gene assay (HEK293T cells)) EUB0000183b NR1H3. Format: functional, cell-based, HEK-293T. The arrangement: mode of action Antagonist, recommended concentration 3 uM.

For assay [13], the target named is T3, Oxysterols receptor LXR-beta. The experiment in a line: Affinity On-target Cellular interaction: (Reporter gene assay (HEK293T cells)) EUB0000183b NR1H2. Format: functional, cell-based, HEK-293T. The arrangement: mode of action Antagonist, recommended concentration 3 uM.
The target of assay [14] is Lysine-specific demethylase 4A (Homo sapiens) (UniProt O75164). In words: Affinity On-target Cellular interaction: (Cellular thermal shift assay (CETSA), U2OS cells) EUB0002543a KDM4A. Format: functional, cell-based. The arrangement: recommended concentration 1 uM. The following applies: Affinity On-target Cellular Source Knowledge https://www.nature.com/articles/ncomms14773#Tab1.
Chain of Lysine-specific demethylase 4A (Homo sapiens) (O75164 whole entry): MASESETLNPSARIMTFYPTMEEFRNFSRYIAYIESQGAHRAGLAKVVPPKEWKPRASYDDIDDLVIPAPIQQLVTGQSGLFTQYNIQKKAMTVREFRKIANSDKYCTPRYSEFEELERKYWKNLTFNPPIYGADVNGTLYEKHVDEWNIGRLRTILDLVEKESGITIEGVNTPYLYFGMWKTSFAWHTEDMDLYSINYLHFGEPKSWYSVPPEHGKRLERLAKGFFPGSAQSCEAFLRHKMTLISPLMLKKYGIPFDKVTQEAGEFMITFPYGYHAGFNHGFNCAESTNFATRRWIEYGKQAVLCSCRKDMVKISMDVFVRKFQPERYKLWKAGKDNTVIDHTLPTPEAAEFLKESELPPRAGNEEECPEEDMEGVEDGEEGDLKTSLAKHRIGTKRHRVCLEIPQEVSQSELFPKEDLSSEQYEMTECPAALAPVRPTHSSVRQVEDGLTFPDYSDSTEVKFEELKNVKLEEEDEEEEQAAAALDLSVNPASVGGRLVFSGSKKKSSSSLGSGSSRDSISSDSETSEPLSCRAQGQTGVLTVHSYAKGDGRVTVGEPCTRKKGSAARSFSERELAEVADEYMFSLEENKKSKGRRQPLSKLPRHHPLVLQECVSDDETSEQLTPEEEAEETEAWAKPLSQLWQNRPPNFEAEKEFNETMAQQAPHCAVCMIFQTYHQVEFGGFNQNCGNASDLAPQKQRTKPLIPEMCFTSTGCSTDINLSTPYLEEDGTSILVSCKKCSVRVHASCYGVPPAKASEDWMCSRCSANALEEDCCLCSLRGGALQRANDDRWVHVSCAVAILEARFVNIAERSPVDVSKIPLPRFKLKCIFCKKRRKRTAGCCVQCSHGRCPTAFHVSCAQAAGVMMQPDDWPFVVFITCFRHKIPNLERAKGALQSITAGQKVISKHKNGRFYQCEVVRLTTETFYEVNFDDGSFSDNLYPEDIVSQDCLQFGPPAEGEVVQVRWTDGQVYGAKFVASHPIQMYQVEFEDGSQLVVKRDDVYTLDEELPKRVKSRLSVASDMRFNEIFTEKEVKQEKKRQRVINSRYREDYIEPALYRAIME

The target in assay [15] is T1, Peroxisome proliferator-activated receptor gamma. In words: Affinity On-target Cellular interaction: (Reporter gene assay (HEK293T cells)) EUB0001143a PPARG. Format: functional, cell-based, HEK-293T. The arrangement: mode of action Agonist, recommended concentration 1 uM.
The target of assay [16] is T5, Peroxisome proliferator-activated receptor delta (Homo sapiens, UniProt Q03181).
T5 sequence (Q03181 whole entry): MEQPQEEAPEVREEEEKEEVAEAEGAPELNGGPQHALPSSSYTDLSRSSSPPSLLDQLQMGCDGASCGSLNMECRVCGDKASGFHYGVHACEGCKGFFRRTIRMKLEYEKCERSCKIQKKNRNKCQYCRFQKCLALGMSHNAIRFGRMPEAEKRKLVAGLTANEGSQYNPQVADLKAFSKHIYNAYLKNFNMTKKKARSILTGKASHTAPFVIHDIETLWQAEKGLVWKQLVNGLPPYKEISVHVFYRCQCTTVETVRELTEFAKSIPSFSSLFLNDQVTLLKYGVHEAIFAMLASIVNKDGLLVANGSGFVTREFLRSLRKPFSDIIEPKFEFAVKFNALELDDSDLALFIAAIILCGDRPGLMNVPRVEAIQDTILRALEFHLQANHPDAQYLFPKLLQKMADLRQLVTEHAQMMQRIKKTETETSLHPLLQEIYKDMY
The experiment in a line: Affinity On-target Cellular interaction: (Reporter gene assay (HEK293T cells)) EUB0001141a PPARD. Format: functional, cell-based, HEK-293T. The arrangement: mode of action Agonist, recommended concentration 1 uM.

pEC50, pIC50: −log10 of the molar value.

Chain of Retinoic acid receptor beta (P10826 whole entry): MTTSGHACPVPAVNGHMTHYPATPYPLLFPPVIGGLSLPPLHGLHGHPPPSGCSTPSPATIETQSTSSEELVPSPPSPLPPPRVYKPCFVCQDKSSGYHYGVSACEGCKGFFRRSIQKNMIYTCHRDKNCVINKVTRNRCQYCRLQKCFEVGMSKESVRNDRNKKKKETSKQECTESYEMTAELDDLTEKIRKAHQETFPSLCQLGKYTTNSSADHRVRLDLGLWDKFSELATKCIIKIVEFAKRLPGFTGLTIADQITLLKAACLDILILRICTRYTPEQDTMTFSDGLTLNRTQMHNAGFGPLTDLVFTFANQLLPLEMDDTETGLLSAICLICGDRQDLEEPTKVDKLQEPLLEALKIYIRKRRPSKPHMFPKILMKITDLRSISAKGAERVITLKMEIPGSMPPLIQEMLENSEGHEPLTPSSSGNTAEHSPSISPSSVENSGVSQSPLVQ
Chain of Retinoic acid receptor alpha (P10276 whole entry): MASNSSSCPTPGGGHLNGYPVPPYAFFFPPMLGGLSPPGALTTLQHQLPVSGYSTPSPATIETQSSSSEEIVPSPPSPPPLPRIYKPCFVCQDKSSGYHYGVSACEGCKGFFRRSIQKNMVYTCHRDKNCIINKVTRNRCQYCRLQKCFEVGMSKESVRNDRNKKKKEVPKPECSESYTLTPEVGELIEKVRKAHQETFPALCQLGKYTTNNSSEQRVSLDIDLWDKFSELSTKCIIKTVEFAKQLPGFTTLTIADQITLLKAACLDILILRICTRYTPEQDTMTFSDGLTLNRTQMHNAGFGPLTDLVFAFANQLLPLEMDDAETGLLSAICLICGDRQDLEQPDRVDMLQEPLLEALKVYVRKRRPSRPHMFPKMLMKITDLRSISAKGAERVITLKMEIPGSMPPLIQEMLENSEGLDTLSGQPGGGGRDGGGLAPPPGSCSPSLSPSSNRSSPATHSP
Chain of Retinoic acid receptor gamma (P13631 whole entry): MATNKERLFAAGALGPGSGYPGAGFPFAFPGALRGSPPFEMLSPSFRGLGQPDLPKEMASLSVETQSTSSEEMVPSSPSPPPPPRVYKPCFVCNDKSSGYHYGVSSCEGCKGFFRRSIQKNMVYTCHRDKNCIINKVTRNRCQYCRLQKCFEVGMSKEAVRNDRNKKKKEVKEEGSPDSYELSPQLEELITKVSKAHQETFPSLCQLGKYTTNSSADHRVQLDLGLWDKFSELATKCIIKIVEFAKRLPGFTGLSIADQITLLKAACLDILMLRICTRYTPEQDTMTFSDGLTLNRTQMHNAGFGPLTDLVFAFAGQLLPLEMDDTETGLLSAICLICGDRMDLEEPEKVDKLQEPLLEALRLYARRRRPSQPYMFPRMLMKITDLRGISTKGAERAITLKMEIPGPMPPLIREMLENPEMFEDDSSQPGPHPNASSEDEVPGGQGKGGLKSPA
Chain of Vitamin D3 receptor (P11473 whole entry): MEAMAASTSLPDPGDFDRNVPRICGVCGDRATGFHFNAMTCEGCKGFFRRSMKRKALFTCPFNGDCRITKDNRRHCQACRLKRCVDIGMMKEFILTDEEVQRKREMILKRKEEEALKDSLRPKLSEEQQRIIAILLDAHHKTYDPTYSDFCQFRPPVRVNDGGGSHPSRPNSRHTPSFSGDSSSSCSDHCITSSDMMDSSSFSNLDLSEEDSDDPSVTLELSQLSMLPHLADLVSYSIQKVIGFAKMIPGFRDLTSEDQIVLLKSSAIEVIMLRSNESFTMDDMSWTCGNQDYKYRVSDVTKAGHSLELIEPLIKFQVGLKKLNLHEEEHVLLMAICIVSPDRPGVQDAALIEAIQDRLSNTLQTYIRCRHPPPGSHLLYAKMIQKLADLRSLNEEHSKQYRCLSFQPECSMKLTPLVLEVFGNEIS

The term pEC50 denotes −log10 of the EC50, conventionally taken in molar units. Take `CSc1ccc(C(=O)/C=C/c2cc(C)c(OC(C)(C)C(=O)O)c(C)c2)cc1` [ELAFIBRANOR]: the pEC50 in [1] is 6.39; in assay [2], 6.89.
The molecule `COc1ccc(OC(=O)N(CC(=O)O)Cc2ccc(OCCc3nc(-c4ccccc4)oc3C)cc2)cc1` [MURAGLITAZAR] had a pEC50 in [3] of 7.30.
Turning to `O=C(O)Cc1cccc(OCCCN(Cc2cccc(C(F)(F)F)c2Cl)CC(c2ccccc2)c2ccccc2)c1`, the pEC50 in [4] was 5.68.
Regarding `C[C@H]1[C@H]2CC[C@H]3[C@@H]4CC=C5C[C@@H](N(C)C)CC[C@]5(C)[C@H]4CC[C@]23CN1C` [CONESSINE], the pEC50 in assay [5] was 6.30; in [6] it was 8.00; in assay [7], 6.20.
In the case of `CCO[C@@H](Cc1ccc(OCCc2ccc(OS(C)(=O)=O)cc2)cc1)C(=O)O` [TESAGLITAZAR], the figures for the pEC50 in assay [8] and in assay [9] were 6.89 and 6.54, respectively.
As for `C=C1/C(=C\C=C2/CCC[C@]3(C)[C@@H]([C@H](C)/C=C/C=C/C(O)(CC)CC)CC[C@@H]23)C[C@@H](O)C[C@@H]1O` [SEOCALCITOL], the pEC50 at Vitamin D3 receptor was 6.96.
In general, pIC50 refers to the IC50 on a negative log10 scale, so that one unit is a factor of ten. A lower pIC50 goes with a high IC50. Regarding `COC(=O)c1sccc1S(=O)(=O)Nc1ccc(Nc2ccccc2)cc1OC`, the pIC50 in assay [10] is 5.21; in assay [11], 5.12.
In the case of `Cc1cc(C)c(S(=O)(=O)N(Cc2ccc(-c3cccc(S(C)(=O)=O)c3)cc2)Cc2ccc(C(F)(F)F)o2)c(C)c1`, the results for the pIC50 in assay [12] and in assay [13] were 7.00 and 7.40, respectively.
For `CC(C)[C@@H]1NC(=O)[C@H](Cc2ccc(O)cc2)NC(=O)[C@@H](CC(=O)O)NC(=O)S[C@@H](C(=O)O)NC(=O)[C@H]([C@H](C)O)NC(=O)[C@H](Cc2ccc(O)cc2)NC(=O)[C@H](Cc2c[nH]c3ccccc23)NC(=O)[C@H](CCCNC(=N)N)NC(=O)[C@H](Cc2c[nH]c3ccccc23)NC(=O)[C@H](C)NC(=O)[C@H](CO)NC(=O)[C@H](CCCNC(=N)N)NC(=O)[C@H]([C@H](C)O)NC(=O)[C@H](CC(N)=O)NC(=O)[C@H](Cc2ccc(O)cc2)NC1=O`, the K in assay [14] worked out at 285 nM.
In turn, `COc1cc2c(cc1CC=C(C)C)C(=O)C[C@@H](c1ccc(O)cc1)O2` [BAVACHININ A] gave a pEC50 in [15] of 6.14.
Consider `Cc1nc(-c2ccc(C(F)(F)F)cc2)sc1C(=O)NCc1ccc(OC(C)(C)C(=O)O)cc1` [GW590735], for which, in [16], the negative logarithm of the EC50 (pEC50) was 6.80.
